Laboratory results taken from ChEMBL document CHEMBL1777813, “Discovery of novel tetracyclic compounds as anaplastic lymphoma kinase inhibitors” (Bioorg Med Chem Lett, 2011).
pIC50: −log10 of the molar value. Calls of active or inactive are those of the source. The calls are words filed in the database; no cut-off is given here.

How the values were obtained:
[1] = target: ALK tyrosine kinase receptor (Homo sapiens, UniProt Q9UM73)
[2] = Clearance in mouse liver microsomes at 1 uM after 30 mins in presence of NADPH; type: ADME, Microsome
[3] = Clearance in human liver microsomes at 1 uM after 30 mins in presence of NADPH; type: ADME, Microsome
KARPAS-299 [4] = assay: cells; conditions: Homo sapiens, KARPAS-299, 96 h
[5] = target: Vascular endothelial growth factor receptor 2 (Homo sapiens, UniProt P35968); assay: Inhibition of KDR assessed as biotin-EGPWLEEEEEAYGWMDF peptide phosphorylation by TR-FRET assay
Chain of Vascular endothelial growth factor receptor 2 (P35968 whole entry): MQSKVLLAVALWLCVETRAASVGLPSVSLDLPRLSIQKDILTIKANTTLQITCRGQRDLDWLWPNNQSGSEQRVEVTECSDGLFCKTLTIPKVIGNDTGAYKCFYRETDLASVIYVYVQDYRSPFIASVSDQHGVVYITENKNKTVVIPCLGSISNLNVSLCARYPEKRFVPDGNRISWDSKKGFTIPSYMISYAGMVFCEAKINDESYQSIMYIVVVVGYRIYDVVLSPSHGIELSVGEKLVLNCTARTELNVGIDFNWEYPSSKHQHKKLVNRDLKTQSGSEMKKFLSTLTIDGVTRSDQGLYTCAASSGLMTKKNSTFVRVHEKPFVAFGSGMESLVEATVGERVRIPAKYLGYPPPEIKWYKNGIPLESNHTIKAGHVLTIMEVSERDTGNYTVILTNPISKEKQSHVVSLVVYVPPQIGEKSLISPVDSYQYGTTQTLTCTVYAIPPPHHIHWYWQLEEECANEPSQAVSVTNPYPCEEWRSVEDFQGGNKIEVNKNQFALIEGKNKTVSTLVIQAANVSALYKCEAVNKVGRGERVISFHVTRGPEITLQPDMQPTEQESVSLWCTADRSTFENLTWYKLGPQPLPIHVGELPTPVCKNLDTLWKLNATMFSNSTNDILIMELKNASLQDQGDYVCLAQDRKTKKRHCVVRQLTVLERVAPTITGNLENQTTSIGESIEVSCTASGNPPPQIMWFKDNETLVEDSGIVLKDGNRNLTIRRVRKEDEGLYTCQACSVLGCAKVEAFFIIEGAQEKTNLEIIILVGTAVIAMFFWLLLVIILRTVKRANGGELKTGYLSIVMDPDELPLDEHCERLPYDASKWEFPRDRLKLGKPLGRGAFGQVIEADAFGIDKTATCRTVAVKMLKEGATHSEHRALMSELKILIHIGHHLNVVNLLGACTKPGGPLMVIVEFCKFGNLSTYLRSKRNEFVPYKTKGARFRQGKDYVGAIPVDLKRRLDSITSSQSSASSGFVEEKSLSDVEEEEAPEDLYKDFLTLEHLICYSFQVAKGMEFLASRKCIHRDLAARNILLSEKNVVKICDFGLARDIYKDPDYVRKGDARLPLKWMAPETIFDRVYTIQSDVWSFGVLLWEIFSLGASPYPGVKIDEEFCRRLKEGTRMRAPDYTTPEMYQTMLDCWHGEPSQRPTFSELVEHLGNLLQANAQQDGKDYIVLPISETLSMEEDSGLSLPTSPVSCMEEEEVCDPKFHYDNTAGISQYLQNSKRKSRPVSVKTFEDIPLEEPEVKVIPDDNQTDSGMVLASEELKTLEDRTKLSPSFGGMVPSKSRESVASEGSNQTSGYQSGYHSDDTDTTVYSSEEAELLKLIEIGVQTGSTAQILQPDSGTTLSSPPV

[6] = target: Proto-oncogene tyrosine-protein kinase Src (Homo sapiens, UniProt P12931); assay: Inhibition of Src assessed as biotin-EGPWLEEEEEAYGWMDF peptide phosphorylation by TR-FRET assay
[7] = target: Fibroblast growth factor receptor 2 (Homo sapiens, UniProt P21802); assay: Inhibition of FGFR2 assessed as biotin-EGPWLEEEEEAYGWMDF peptide phosphorylation by TR-FRET assay
[8] = target: Tyrosine-protein kinase ABL1 (Homo sapiens, UniProt P00519); assay: Inhibition of Abl assessed as biotin-EGPWLEEEEEAYGWMDF peptide phosphorylation by TR-FRET assay
[9] = target: Insulin-like growth factor 1 receptor (Homo sapiens, UniProt P08069); assay: Inhibition of IGF1R assessed as biotin-EGPWLEEEEEAYGWMDF peptide phosphorylation by TR-FRET assay
Chain of Insulin-like growth factor 1 receptor (P08069 31-736 limits assumed): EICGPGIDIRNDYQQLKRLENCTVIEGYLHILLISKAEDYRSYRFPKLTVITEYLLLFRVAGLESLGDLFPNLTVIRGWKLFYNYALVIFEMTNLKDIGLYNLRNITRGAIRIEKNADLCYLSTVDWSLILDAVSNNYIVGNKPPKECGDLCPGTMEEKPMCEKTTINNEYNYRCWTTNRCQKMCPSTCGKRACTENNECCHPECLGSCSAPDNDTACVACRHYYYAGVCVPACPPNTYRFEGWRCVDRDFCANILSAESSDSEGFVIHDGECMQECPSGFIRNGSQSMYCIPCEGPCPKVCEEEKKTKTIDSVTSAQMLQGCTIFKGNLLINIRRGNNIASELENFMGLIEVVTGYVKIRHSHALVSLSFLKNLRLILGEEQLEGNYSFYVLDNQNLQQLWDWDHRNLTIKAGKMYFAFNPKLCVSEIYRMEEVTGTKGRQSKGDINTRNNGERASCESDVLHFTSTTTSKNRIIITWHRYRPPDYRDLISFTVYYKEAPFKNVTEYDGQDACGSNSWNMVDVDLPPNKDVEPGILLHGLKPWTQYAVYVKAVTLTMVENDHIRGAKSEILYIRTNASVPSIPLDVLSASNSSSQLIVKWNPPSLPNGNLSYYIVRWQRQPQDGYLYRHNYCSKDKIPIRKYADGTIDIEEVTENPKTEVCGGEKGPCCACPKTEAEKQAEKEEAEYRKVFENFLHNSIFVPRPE
Chain of Insulin-like growth factor 1 receptor (P08069 741-1367 limits assumed): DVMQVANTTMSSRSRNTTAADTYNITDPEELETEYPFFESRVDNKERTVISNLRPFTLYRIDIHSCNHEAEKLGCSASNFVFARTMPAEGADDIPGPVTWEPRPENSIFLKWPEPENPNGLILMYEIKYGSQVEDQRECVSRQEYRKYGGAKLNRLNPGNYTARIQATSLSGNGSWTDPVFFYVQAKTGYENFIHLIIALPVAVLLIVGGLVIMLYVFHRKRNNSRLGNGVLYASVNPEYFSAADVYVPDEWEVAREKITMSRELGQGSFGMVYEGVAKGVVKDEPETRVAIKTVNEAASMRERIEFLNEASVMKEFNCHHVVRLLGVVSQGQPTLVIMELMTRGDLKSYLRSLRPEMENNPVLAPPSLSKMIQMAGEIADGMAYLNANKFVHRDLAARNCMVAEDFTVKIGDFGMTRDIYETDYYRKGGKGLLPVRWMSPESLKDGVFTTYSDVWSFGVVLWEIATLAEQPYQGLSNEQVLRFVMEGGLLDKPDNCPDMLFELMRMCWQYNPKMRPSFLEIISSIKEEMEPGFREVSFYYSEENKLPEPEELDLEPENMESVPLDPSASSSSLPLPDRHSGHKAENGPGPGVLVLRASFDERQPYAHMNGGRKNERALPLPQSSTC

[10] = target: Epidermal growth factor receptor (Homo sapiens, UniProt P00533); assay: Inhibition of EGFR assessed as biotin-EGPWLEEEEEAYGWMDF peptide phosphorylation by TR-FRET assay
[11] = target: Receptor tyrosine-protein kinase erbB-2 (Homo sapiens, UniProt P04626); assay: Inhibition of HER2 assessed as biotin-HEQEDEPEGDYFEWLEPE peptide phosphorylation by TR-FRET assay
[12] = target: Mast/stem cell growth factor receptor Kit (Homo sapiens, UniProt P10721); assay: Inhibition of Kit assessed as biotin-HEQEDEPEGDYFEWLEPE peptide phosphorylation by TR-FRET assay
[13] = target: RAC-alpha serine/threonine-protein kinase (Homo sapiens, UniProt P31749); assay: Inhibition of AKT1 assessed as FI-H1-peptide phosphorylation by fluorescence polarization assay
Aurora kinase A = target: T1, Aurora kinase A (Homo sapiens, UniProt O14965); assay: Inhibition of aurora A assessed as FLC-LRRASLG peptide phosphorylation by fluorescence polarization assay
T1 sequence (O14965 whole entry): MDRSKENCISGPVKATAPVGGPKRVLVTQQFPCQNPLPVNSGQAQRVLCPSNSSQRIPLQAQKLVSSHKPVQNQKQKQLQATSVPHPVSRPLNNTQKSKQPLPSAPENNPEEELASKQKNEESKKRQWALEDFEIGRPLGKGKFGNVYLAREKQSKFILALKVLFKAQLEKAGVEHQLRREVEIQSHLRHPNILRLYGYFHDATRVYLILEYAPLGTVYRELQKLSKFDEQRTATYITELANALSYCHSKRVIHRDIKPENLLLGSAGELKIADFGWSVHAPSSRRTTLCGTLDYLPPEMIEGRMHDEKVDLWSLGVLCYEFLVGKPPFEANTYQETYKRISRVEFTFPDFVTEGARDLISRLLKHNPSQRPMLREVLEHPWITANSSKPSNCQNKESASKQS

[14] = target: Protein kinase C alpha type (Homo sapiens, UniProt P17252); assay: Inhibition of PKCalpha assessed as FLC-SIYRRGSRRWRKL peptide phosphorylation by fluorescence polarization assay
[15] = target: T2, Protein kinase C beta type (Homo sapiens, UniProt P05771); assay: Inhibition of PKCbeta1 assessed as FLC-SIYRRGSRRWRKL peptide phosphorylation by fluorescence polarization assay
T2 sequence (P05771 whole entry): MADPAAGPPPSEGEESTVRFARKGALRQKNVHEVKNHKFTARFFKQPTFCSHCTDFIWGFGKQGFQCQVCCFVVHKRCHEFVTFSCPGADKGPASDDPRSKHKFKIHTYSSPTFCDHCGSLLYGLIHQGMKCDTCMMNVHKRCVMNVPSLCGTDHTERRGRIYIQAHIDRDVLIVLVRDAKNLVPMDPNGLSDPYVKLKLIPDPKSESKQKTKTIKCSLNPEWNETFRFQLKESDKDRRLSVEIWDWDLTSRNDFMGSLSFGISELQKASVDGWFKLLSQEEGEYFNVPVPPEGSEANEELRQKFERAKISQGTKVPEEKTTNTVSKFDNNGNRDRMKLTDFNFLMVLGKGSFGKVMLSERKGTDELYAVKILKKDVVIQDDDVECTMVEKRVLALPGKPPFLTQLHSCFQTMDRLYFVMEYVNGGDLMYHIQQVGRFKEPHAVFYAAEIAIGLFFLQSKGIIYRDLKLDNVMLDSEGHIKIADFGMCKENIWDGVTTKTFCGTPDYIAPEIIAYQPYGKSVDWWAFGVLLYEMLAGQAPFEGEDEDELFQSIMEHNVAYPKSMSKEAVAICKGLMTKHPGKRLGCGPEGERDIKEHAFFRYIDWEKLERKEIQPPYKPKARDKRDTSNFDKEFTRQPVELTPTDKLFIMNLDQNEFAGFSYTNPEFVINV

[16] = target: T2, Protein kinase C beta type; assay: Inhibition of PKCbeta2 assessed as FLC-SIYRRGSRRWRKL peptide phosphorylation by fluorescence polarization assay
[17] = target: RAF proto-oncogene serine/threonine-protein kinase (Homo sapiens, UniProt P04049); assay: Inhibition of Raf1 assessed as MEK1/2 phosphorylation by fluorescence polarization assay
KARPAS-299 [18] = assay: Antitumor activity against human KARPAS299 cells expressing NPM-ALK xenografted in SCID mouse assessed as reduction of tumor volume administered as po qd for 11 days; type: functional, organism-based
NCI-H2228 [19] = assay: Antitumor activity against human NCI-H2228 cells expressing EML4-ALK xenografted in SCID mouse assessed as reduction of tumor volume administered as po qd for 11 days; type: functional, organism-based
KARPAS-299 [20] = assay: Antitumor activity against human KARPAS299 cells expressing NPM-ALK xenografted in SCID mouse assessed as tumor regression at 6 to 60 mg/kg, po qd for 11 days; type: functional, organism-based
NCI-H2228 [21] = assay: Antitumor activity against human NCI-H2228 cells expressing EML4-ALK xenografted in SCID mouse assessed as tumor regression at 0.2 to 20 mg/kg, po qd for 11 days; type: functional, organism-based
Mus musculus [22] = assay: Toxicity in human KARPAS299 cells expressing NPM-ALK xenografted SCID mouse administered as change in body weight at 6 to 60 mg/kg, po qd for 11 days; type: organism-based, KARPAS-299; design: dose 6-60 mg/kg, route oral; conditions: in vivo, 264 h
Mus musculus [23] = assay: Toxicity in human NCI-H2228 cells expressing EML4-ALK xenografted SCID mouse administered as change in body weight at 0.2 to 20 mg/kg, po qd for 11 days; type: organism-based; design: dose 0.2-20 mg/kg, route oral; conditions: in vivo, 264 h

Chain of ALK tyrosine kinase receptor (Q9UM73 whole entry): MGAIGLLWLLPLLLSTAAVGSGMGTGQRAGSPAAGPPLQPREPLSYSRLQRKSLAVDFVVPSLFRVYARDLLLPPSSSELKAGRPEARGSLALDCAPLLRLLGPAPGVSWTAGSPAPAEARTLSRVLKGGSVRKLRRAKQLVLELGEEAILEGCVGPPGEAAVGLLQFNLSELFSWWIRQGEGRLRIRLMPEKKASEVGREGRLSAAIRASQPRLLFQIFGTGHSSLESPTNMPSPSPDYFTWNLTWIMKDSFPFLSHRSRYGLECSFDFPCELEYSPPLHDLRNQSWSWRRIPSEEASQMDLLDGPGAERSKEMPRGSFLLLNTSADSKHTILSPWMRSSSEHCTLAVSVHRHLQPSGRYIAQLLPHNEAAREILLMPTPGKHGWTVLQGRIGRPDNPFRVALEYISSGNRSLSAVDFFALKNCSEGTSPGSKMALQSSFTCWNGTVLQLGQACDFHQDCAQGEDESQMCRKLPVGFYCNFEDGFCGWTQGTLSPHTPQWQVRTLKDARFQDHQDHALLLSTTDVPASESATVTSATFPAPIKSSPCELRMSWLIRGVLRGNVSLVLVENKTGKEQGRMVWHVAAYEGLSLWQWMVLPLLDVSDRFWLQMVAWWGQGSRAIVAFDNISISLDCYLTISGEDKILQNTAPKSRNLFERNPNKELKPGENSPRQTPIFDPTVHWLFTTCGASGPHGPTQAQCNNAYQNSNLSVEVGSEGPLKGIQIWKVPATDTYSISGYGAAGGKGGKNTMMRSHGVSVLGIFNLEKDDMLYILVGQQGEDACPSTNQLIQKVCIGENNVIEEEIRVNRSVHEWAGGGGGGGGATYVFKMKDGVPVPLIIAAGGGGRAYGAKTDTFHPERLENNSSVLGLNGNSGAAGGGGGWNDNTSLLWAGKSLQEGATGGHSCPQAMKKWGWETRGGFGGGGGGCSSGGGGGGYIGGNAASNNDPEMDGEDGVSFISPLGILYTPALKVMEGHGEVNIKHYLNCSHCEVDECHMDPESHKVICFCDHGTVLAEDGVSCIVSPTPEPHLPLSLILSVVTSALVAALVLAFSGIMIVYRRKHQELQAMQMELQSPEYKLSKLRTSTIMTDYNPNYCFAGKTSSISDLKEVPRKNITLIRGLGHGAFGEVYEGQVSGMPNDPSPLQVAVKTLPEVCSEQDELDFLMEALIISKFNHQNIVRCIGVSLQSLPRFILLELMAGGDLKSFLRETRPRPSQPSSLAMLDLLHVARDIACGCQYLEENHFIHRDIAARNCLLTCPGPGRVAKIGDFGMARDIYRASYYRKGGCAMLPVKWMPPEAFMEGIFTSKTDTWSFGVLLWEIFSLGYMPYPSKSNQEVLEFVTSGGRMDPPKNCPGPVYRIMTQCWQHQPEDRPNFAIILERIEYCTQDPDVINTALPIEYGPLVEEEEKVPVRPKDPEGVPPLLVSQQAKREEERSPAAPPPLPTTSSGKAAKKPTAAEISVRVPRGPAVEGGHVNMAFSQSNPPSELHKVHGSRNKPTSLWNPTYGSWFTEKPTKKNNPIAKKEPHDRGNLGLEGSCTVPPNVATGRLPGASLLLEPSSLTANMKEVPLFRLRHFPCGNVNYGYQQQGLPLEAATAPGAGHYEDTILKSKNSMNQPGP

Row | Structure (SMILES) | pIC50 [1] | microsomal CLint at 1 µM [2] | microsomal CLint at 1 µM [3] | pIC50 (KARPAS-299 [4]) | also measured
1 | CCCOc1ccc2c3c(oc2c1)C(C)(C)c1cc(OCCN(CC)CC)ccc1C3=O | 5.61 |  |  |  | 
2 | CC1(C)c2cc(N3CCOCC3)ccc2C(=O)c2c1[nH]c1cc(C#N)ccc21 | 7.73 | 8.1 µL/min/mg | 33.6 µL/min/mg | 6.87 | 
3 | CC1(C)c2cc(OCCNC(N)=O)ccc2C(=O)c2c1[nH]c1cc(C#N)ccc21 |  | 6.8 µL/min/mg | 4 µL/min/mg | 5.64 | 
4 | CC1(C)c2cc(N3CCN(C4COC4)CC3)ccc2C(=O)c2c1[nH]c1cc(C#N)ccc21 | 7.57 | 15.1 µL/min/mg | 9.6 µL/min/mg | 7.32 | 
5 | CC(=O)NCCOc1ccc2c(c1)C(C)(C)c1[nH]c3cc(C#N)ccc3c1C2=O | 7.94 | 14.1 µL/min/mg | 4.2 µL/min/mg | 6.40 | 
6 | CCN(CC)CCOc1ccc2c(c1)C(C)(C)c1oc3cc(C(F)(F)F)ccc3c1C2=O | 5.46 |  |  |  | 
7 | CCN(CC)CCOc1ccc2c(c1)C(C)(C)c1[nH]c3cc(C#N)ccc3c1C2=O |  | 51.4 µL/min/mg | 54.5 µL/min/mg | 7.22 | 
8 | CCN(CC)CCOc1ccc2c(c1)C(C)(C)c1oc3cc(Br)ccc3c1C2=O | 6.11 |  |  |  | 
9 | CCN(CC)CCOc1ccc2c(c1)C(C)(C)c1[nH]c3cc([N+](=O)[O-])ccc3c1C2=O |  |  |  | 6.24 | 
10 | CCN(CC)CCOc1ccc2c(c1)C(C)(C)c1[nH]c3cc(Br)ccc3c1C2=O |  |  |  | 6.17 | 
11 | CC1(C)c2cc(N3CCC(O)CC3)ccc2C(=O)c2c1[nH]c1cc(C#N)ccc21 | 7.94 | 24.6 µL/min/mg | 7.1 µL/min/mg | 6.94 | 
12 | CCN(CC)CCOc1ccc2c(c1)C(C)(C)c1[nH]c3cc(Cl)ccc3c1C2=O |  |  |  | 6.31 | 
13 | CC1(C)c2cc(N3CCN(S(C)(=O)=O)CC3)ccc2C(=O)c2c1[nH]c1cc(C#N)ccc21 | 7.43 | 15.8 µL/min/mg | 19.2 µL/min/mg | 6.58 | 
14 | CC1(C)c2cc(N3CCCCC3)ccc2C(=O)c2c1[nH]c1cc(C#N)ccc21 | 7.48 | 58.9 µL/min/mg | 39.5 µL/min/mg | 6.48 | 
15 | CC(C)N1CCN(c2ccc3c(c2)C(C)(C)c2[nH]c4cc(C#N)ccc4c2C3=O)CC1 |  | 23.1 µL/min/mg | 82.7 µL/min/mg |  | 
16 | CC1(C)c2cc(C3CCN(C4COC4)CC3)ccc2C(=O)c2c1[nH]c1cc(C#N)ccc21 |  | 10.4 µL/min/mg | 10.2 µL/min/mg |  | pIC50 [5]: 7.00; pIC50 [6]: 6.60; pIC50 [7]: 6.44; pIC50 [8]: 6.43; pIC50 [9]: 6.00; pIC50 [10]: < 4.30; pIC50 [11]: < 4.30; pIC50 [12]: < 4.30; pIC50 [13]: < 4.30; pIC50 (Aurora kinase A): < 4.30; pIC50 [14]: < 4.30; pIC50 [15]: < 4.30; pIC50 [16]: < 4.30; pIC50 [17]: < 4.30; Activity (KARPAS-299 [18]): Dose-dependent effect; Activity (NCI-H2228 [19]): Dose-dependent effect; Activity (KARPAS-299 [20]): Active; Activity (NCI-H2228 [21]): Active; Activity (Mus musculus [22]): Non-toxic; Activity (Mus musculus [23]): Non-toxic
17 | CCN(CC)CCOc1ccc2c(c1)C(C)(C)c1oc3cc(Cl)ccc3c1C2=O | 6.18 |  |  |  | 
18 | CC1(C)c2cc(OCCN3CCS(=O)(=O)CC3)ccc2C(=O)c2c1[nH]c1cc(C#N)ccc21 | 8.43 | 24.9 µL/min/mg | 67 µL/min/mg | 7.06 | 
